Measured values taken from patent US20100204202A1, “DRUG FOR ALLEVIATING MOTOR COMPLICATIONS OR PSYCHIATRIC SYMPTOMS OF PARKINSON'S DISEASE” (Asubio Pharma Co., Ltd., priority 2007, published 2010).
Entries after “also recorded” stand apart in the source; their conditions may differ. Counter-ions that a name gives are not always drawn. Like-named read-outs stand apart in the source and are kept apart here.

How the values were obtained:
[1] = target: T1, human dopamine D2S receptors (Homo sapiens, UniProt P14416); test: Binding affinity test on human dopamine D2S receptors ([3H]spiperone, CHO membranes); details: for Ki: Dopamine D2S; for binding affinity (in words): human dopamine D2S receptors
T1 construct: expressed in transfected cells; host or cells: CHO
Procedure: For the test, membrane specimens prepared from Chinese hamster ovary (CHO) cells expressing human dopamine D2S receptors were used. To a 50 mM Tris-HCl (pH 7.4) buffer containing 1.4 mM ascorbic acid, 0.001% BSA, and 150 mM NaCl, [^3H] spiperone (final concentration 0.16 nM), the test sample solution and a membrane specimen were added. The reaction solution was allowed to react at 25° C. for 2 hours, then the reaction solution was filtered with a cell harvester, the filtered filter paper was transferred to a measurement vial, a liquid scintillator was added, and the receptor bond radioactivity remaining on the filter paper was determined with a liquid scintillation counter. The nonspecific bonds were defined as the amount of bonds in the presence of 10 μM haloperidol.
(§1) The following formula was used to calculate the binding inhibition rate: […]
From the binding inhibition rate, a regression formula was used to calculate the 50% inhibition concentration. Furthermore, the inhibition constant (Ki) was calculated.

[2] = target: T2, human dopamine D3 receptors (Homo sapiens, UniProt P35462); test: Binding affinity test on human dopamine D3 receptors ([3H]spiperone, CHO membranes); details: for binding affinity (in words): human dopamine D3 receptors
T2 construct: expressed in transfected cells; host or cells: CHO
Procedure: For the test, membrane specimens prepared from Chinese hamster ovary (CHO) cells expressing human dopamine D3 receptors were used. To a 50 mM Tris-HCl buffer (pH 7.4) containing 1.4 mM ascorbic acid, 0.001% BSA, and 150 mM NaCl, [^3H] spiperone (final concentration 0.7 nM), the test sample solution and a membrane specimens were added. The reaction solution was allowed to react at 37° C. for 2 hours, then the reaction solution was filtered with a cell harvester, the filtered filter paper was transferred to a measurement vial, a liquid scintillator was added and the receptor bond radioactivity remaining on the filter paper was determined by a liquid scintillation counter.
as §1
Furthermore, the inhibition constant (Ki) was calculated.

[3] = test system: Parkinson's disease model rats; test: Hyperkinesia of the forelimbs and shortening of rotational behavior duration induced by repeated doses of levodopa; format: in vivo, rat; details: for rats that did not exhibit rotational behavior: 5 mg/kg oral
Text: In rats with unilateral nigrostriatal dopamine nerve destruction generally used as Parkinson's disease animal models, it became clear that by administering levodopa by repeated dosage for about 5 weeks, behavior resembling the symptoms of advanced stage Parkinson's disease appeared. That is, in Parkinson's disease model rats prepared in the same way as in Example 4, along with repeated doses of levodopa, abnormal behavior such as involuntary extending of the forelimb or opening or closing of the hand, up-and-down movement of the wrist, choreiform tremor in the forelimb on the opposite side of microinjection of 6-hydroxydopamine was observed (FIG. 3). This abnormal behavior is reported by Steece-Collier et al. (Steece-Collier K. et al., “Embryonic mesencephalic grafts increase levodopa-induced forelimb hyperkinesia in parkinsonian rats”, Movement Disorders, 2003, 18, p. 1442-1454) as hyperkinesia of the forelimbs.
This appears dependent on the period of repeated doses of levodopa and reportedly is similar to clinical dyskinesia. […] Bibbiani et al. (Bibbiani F. et al., “Serotonin 5-HT1A agonist improves motor complications in rodent and primate parkinsonian models”, Neurology, 2001, 57, p. 1829-1834) report that in Parkinson's disease model rats, along with repeated doses of levodopa, a shortening of the rotational behavior duration is observed and that this phenomenon resembles the wearing off phenomenon in clinical studies.
That is, they treated each group by repeated doses of levodopa and repeated dosage of the tested substance for about 2 weeks (Monday to Friday) and observed the hyperkinesia of the forelimbs and rotational behavior after levodopa administration. Note that the SUN N4057 was subcutaneously administered right before levodopa administration, the sarizotan was orally administered about 20 minutes before levodopa dosage in accordance with above-mentioned known reports (Bibbiani F. et al., Neurology, 2001, 57, p. 1829-1834), and the Example Compound 4 of Japanese Patent Publication No. 2005-298402A was subcutaneously administered about 30 minutes before levodopa dosage in accordance with the above-mentioned Japanese Patent Publication No. 2005-298402A. Further, for the solvent, for SUN N4057 and Example Compound 4 of Japanese Patent Publication No. 2005-298402A, physiological saline was used.
In the same way as Example 4, Parkinson's disease model rats were prepared and the rats treated by repeated doses of levodopa (twice a day, Monday to Friday) for 5 weeks and measured for hyperkinesia of the forelimbs and rotational behavior. Further, based on the results of the hyperkinesia of the forelimbs and rotational behavior duration, the rats were assigned to the groups so as to prevent any significant difference between them, then the effects of the tested substances on these behaviors resembling symptoms of advanced stage Parkinson's disease patients were compared and studied. […] Note that compound Ib (0.3, 1 mg/kg) and compound Ic (0.3, 1 mg/kg) were both intraperitoneally administered right before levodopa administration. For the solvent, physiological saline was used.

rats = test: Amount of locomotor activity; format: in vivo, rat; details: 0.3, 1, and 3 mg/kg i.p.; minutes 0-15
Text: For the test, Crl: CD(SD) male rats supplied by Charles River Japan were used (6 weeks old at start of test). For the forced swimming test, the method of the improved type reported by Lucki et al. (Lucki I., “The forced swimming test as a model for core and component behavioral effects of antidepressant drugs”, Behavioural Pharmacology, 1997, 8, p. 523-532; Cryan J. F. et al., “Assessing antidepressant activity in rodents: recent developments and future needs”, TRENDS in Pharmacological Sciences, 2002, 23, p. 238-245) was used. On day 1, each rat was placed in a cylinder filled with water (height 45 cm×diameter 30 cm, water depth 30 cm, water temperature 23° C., water depth set to depth by which back legs and tail of rat will not touch the bottom). The rat was taken out after 15 minutes. At this time, the immobility period (seconds) of minutes 10-15 (5 minutes) was recorded. Based on the results, the rats were assigned to five groups so that there would be no difference among the groups. On day 2, each rat was placed in a cylinder filled with water the same as day 1 and the immobility period (seconds), swimming behavior period (seconds), and climbing behavior period (seconds) of minutes 0-5 (5 minutes) were measured. […]

[4] = 1, 3 mg/kg s.c. repeated 2 weeks
[5] = 0.03, 0.1 mg/kg s.c. repeated 2 weeks

T1 sequence (P14416 1-414 isoform P14416-2): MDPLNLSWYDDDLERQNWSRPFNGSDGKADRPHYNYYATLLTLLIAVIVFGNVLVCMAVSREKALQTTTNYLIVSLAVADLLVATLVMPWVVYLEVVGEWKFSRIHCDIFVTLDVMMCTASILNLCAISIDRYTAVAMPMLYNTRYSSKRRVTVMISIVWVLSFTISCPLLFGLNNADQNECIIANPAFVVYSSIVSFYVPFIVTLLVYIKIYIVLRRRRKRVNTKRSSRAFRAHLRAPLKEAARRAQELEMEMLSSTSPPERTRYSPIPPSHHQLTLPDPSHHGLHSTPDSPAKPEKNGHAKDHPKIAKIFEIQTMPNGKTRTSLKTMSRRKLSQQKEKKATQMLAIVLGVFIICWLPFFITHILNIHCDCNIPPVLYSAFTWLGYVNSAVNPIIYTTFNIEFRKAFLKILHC
T2 sequence (P35462 whole entry): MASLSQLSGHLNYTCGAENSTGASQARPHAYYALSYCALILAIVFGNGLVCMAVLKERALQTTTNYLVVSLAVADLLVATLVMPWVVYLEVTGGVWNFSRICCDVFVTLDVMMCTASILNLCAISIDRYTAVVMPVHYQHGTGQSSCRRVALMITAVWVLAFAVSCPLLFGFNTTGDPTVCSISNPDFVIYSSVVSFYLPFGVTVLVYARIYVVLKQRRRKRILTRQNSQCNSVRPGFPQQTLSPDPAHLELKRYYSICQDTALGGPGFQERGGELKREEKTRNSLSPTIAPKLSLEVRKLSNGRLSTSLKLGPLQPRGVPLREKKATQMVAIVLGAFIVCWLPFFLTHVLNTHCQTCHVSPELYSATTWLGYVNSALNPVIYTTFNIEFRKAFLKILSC

Ki [1] | binding affinity (in words) [1] | binding affinity (in words) [2] | Ki [2] | SMILES | Ki ([2]; Dopamine D3, read-out: Ki) | rotational behavior duration ([3]; 3 mg/kg s.c. repeated 2 weeks) | end of the rotational behavior [3, 4] | start of rotational behavior [3, 4] | hyperkinesia of the forelimbs ([3]; 1, 3 mg/kg s.c. repeated 2 weeks, vs physiological saline group, dihydrochloride) | hyperkinesia of the forelimbs ([3]; 0.03 mg/kg s.c. repeated 2 weeks, 1 hour after levodopa dosage) | hyperkinesia of the forelimbs ([3]; 0.1 mg/kg s.c. repeated 2 weeks, 1 and 2 hours after levodopa dosage) | end of the rotational behavior [3, 5] | rotational behavior duration [3, 5] | amount of locomotor activity (rats) | rotational behavior duration ([3]; 5 mg/kg oral repeated 2 weeks) | hyperkinesia of the forelimbs ([3]; 5 mg/kg oral repeated 2 weeks, 1 hour after levodopa dosage, p=0.099) | rats that did not exhibit rotational behavior ([3]; 30 minutes after levodopa dosage) | rats that did not exhibit rotational behavior ([3]; 1 hour after levodopa dosage) | start of rotational behavior due to levodopa dosage ([3]; 1 and 5 mg/kg oral repeated 2 weeks) | hyperkinesia of the forelimbs, compared with the solvent group (Dunnett's test) ([3]; repeated oral administration, week 7 of levodopa)
6.34 nM | comparatively strong binding affinity | comparatively strong binding affinity | – | Cl.Cl.O=c1[nH]c2cccc(C3CCCN(Cc4cncc(-c5ccc(F)cc5)c4)C3)c2o1 (stereo not shown) [7-(1-{[5-(4-fluorophenyl)pyridin-3-yl]methyl}piperidin-3-yl)-1,3-benzoxazol-2(3H)-one dihydrochloride] | 9.07 nM | significant prolongation | prolonged | started earlier | no action was exhibited; also recorded: no significant difference | – | – | – | – | – | – | – | – | – | – | –
2.56 nM | comparatively strong binding affinity | comparatively strong binding affinity | 3.48 nM | Cl.Cl.Fc1ccc(-c2cncc(CNC[C@H]3CCc4ccccc4O3)c2)cc1 [Sarizotan, 1-[(2R)-3,4-dihydro-2H-chromen-2-yl]-N-{[5-(4-fluorophenyl)pyridin-3-yl]methyl}methanamine dihydrochloride] | – | – | – | – | – | – | – | – | – | – | significant shortening | tendency of the hyperkinesia of the forelimbs to be inhibited | Six out of nine | three out of nine | delay in the start of rotational behavior | no significant difference

SMILES | Ki [1] | binding affinity (in words) [1] | binding affinity (in words) [2] | Ki [2] | Ki ([2]; Dopamine D3, read-out: Ki) | rotational behavior duration ([3]; 3 mg/kg s.c. repeated 2 weeks) | end of the rotational behavior [3, 4] | start of rotational behavior [3, 4] | hyperkinesia of the forelimbs ([3]; 1, 3 mg/kg s.c. repeated 2 weeks, vs physiological saline group, dihydrochloride) | hyperkinesia of the forelimbs ([3]; 0.03 mg/kg s.c. repeated 2 weeks, 1 hour after levodopa dosage) | hyperkinesia of the forelimbs ([3]; 0.1 mg/kg s.c. repeated 2 weeks, 1 and 2 hours after levodopa dosage) | end of the rotational behavior [3, 5] | rotational behavior duration [3, 5] | amount of locomotor activity (rats) | rotational behavior duration ([3]; 5 mg/kg oral repeated 2 weeks) | hyperkinesia of the forelimbs ([3]; 5 mg/kg oral repeated 2 weeks, 1 hour after levodopa dosage, p=0.099) | rats that did not exhibit rotational behavior ([3]; 30 minutes after levodopa dosage) | rats that did not exhibit rotational behavior ([3]; 1 hour after levodopa dosage) | start of rotational behavior due to levodopa dosage ([3]; 1 and 5 mg/kg oral repeated 2 weeks) | hyperkinesia of the forelimbs, compared with the solvent group (Dunnett's test) ([3]; repeated oral administration, week 7 of levodopa)
O=C1c2ccccc2OC=C(Cl)N1CCCCN1CC=C(c2ccccn2)CC1 [SUN N4057, 3-chloro-4,5-dihydro-4-{4-[4-(2-pyridyl)-1,2,3,6-tetrahydropyridin-1-yl]butyl}-1,4-benzoxazepin-5-one.dihydrochloride-dihydrate] | 162 nM | – | – | – | 42.8 nM | – | – | – | – | significantly inhibited | significantly inhibited | significantly prolonged | significantly prolonged | no significant change | – | – | – | – | – | –
